Tests used:
intestinal transit = experiment: Intestinal transit in multi-fistulated dogs, cumulative % recovery of 99mTc-DTPA; type: in vivo, dog; details: for Effect of 5-HT delivered to distal gut on intestinal transit time: n = 2 dogs
Excerpt: The experiments described below are based on a previously described chronic multi-fistulated dog model, employing surgically fistulated male or female mongrel dogs weighing about 25 kg each. (Lin, H. C. et al., Inhibition of gastric emptying by glucose depends on length of intestine exposed to nutrient, Am. J. Physiol. 256:G404-G411 [1989]). The small intestines of the dogs were each about 300 cm long from the pylorus to the ileal-cecal valve. The duodenal fistula was situated 15 cm from the pylorus; the mid-gut fistula was situated 160 cm from the pylorus. Occluding Foley catheters (balloon catheters that are inflated to produce a water-tight seal with the lumenal surface) were placed into the distal limb of a duodenal fistula and a mid-gut fistula, fat or other test agents were administered lumenally to the thus compartmentalized Aproximal≅ section of the gut, i.e., between the fistulas, or to the compartmentalized Adistal≅ section of the gut, i.e., beyond the mid-gut fistula. Perfusate was pumped into a test section through the catheter at a rate of 2 mL/minute. Test agents were administered along with buffer perfusate, but some test agents were administered intravenously, where specifically noted.
Intestinal transit measurements were made by tracking the movement of a liquid marker across the approximately 150 cm intestinal test segment by delivering about 20 μCi ^99mTc chelated to diethyltriamine pentaacetic acid (DTPA)(Cunningham, K. M. et al., Use of technicium-99m (V)thiocyanate to measure gastric emptying of fat, J. Nucl. Med. 32:878-881 [1991]) as a bolus into the test segment after 60 minutes of a 90-minute perfusion. The output from the mid-gut fistula was collected every 5 min thereafter for 30 minutes, which period is illustrated in FIGS. 9-23. Using a matched dose of ^99mTc to represent the original radioactivity (Johansson, C., Studies of gastrointestinal interactions, Scand. J. Gastroenterol. 9(Suppl 28):1-60 [1974]; Zierler, K., A simplified explanation of the theory of indicator dilution for measurement of fluid flow and volume and other distributive phenomena, Bull. John Hopkins 103:199-217 [1958]), the radioactivity delivered into the animal as well as the radioactivity of the recovered fistula output were all measured using a gamma well counter. After correcting all counts to time zero, intestinal transit was calculated as the cumulative percent recovery of the delivered ^99mTc-DTPA. This method has been well validated over the years and appreciated for its advantage of minimal inadvertent marker loss. […] There was a very high level of marker recovery, with 90% of the marker recovered by 30 minutes and 98% of the marker recovered by 45 minutes.

[1] = test system: release of 5-HT from the proximal gut; experiment: 5-HT released by the proximal gut (ELISA of mid-gut fistula output); type: in vivo, dog; details: 5-HT 0.05 mg/kg/h to distal gut; control 156 μg; n=1
Description: To test the hypothesis that fat in the distal gut causes the release of 5-HT in the proximal gut, the amount of 5-HT collected from the output of the mid-gut fistula (proximal gut 5-HT) over a 90-minute period of buffer perfusion through both the duodenal and mid-gut fistulas (2 mL/min); buffer (control) or oleate (60 mM) was administered to the distal gut (n=1). The amount of 5-HT was determined using an ELISA kit specific for 5-HT (Sigma; Graham-Smith, D. G., The carcinoid syndrome, In: Topics in Gastroenterology, Truclove, S. C. and Lee, E. (eds.), Blackwells, London, p. 275 [1977]; Singh, S. M. et al., Concentrations of serotonin in plasma-a test for appendicitis?, Clin. Chem. 34:2572-2574 [1988]). The amount of 5-HT released by the proximal gut increased in response to fat in the distal gut from 100 μg in the control (buffer minus oleate) to 338 μg (buffer plus oleate to distal gut), showing that 5-HT is released in the proximal gut in response to fat in the distal gut. Thus, the release of 5-HT by the proximal gut can serve as a relayed signal for fat in the distal gut. The relayed release of 5-HT in the proximal gut in response to fat in the distal gut is consistent with Example 14(2), showing that slowing of intestinal transit by fat depends on an efferent 5-HT-mediated pathway to the proximal gut.
To test the hypothesis that 5-HT in the distal gut causes the release of 5-HT in the proximal gut, the amount of 5-HT collected from the output at the mid-gut fistula (Proximal gut 5-HT) over a 90-minute period of buffer perfusion through both the duodenal and mid-gut fistulas (2 mL/min each) was compared in the presence or absence of 5-HT (0.05 mg/kg/h) administered to the distal gut (n=1). 5-HT concentration was determined using an ELISA kit specific for 5-HT (Sigma). The amount of 5-HT released by the proximal gut increased from 156 μg in the control (minus distal 5-HT) to 450 μg (plus 5-HT to distal gut), implying that 5-HT is released by the proximal gut in response to 5-HT in the distal gut. Thus, the release of 5-HT by the proximal gut can serve as a relayed signal for distal gut 5-HT. This relayed release of 5-HT in the proximal gut explains the results of Example 14(6) showing that the slowing of intestinal transit by distal gut 5-HT was abolished by ondansetron in the proximal gut (efferent limb of response) as well as in the distal gut (afferent limb of response).
To test the hypothesis that the proximal gut releases 5-HT in response to lipid in the distal gut, we compared the amount of 5-HT in the output of the midgut fistula (i.e., proximal gut 5-HT) with buffered saline (control) or oleate in the distal gut. The amount of 5-HT collected over 90 min was measured using a 5-HT-specific ELISA test kit, as described herein above. Four dogs were tested.
The amount of 5-HT released from the proximal gut in response to intravenous PYY or buffered saline (Control) during buffer perfusion (2 mL/min over 90 minutes) through both the duodenal and mid-gut fistulas was measured to test the hypothesis that intravenous PYY (0.8 mg/kg/h) causes the release of 5-HT in the proximal gut. 5-HT was measured as in Example 14(9) above. The amount of 5-HT released by the proximal gut increased from 140.1 μg (Control) to 463.1 μg in response to intravenous PYY.

SIBO [2] = experiment: Comparison of antibiotic regimes for eradicating SIBO, follow-up lactulose breath hydrogen test (LBHT); type: in vivo, human; details: for % Patients with SIBO Eradicated: follow-up LBHT
Description: Subjects were tested after an overnight fast. […] Each breath sample was then analyzed for hydrogen content with a gas chromatograph (Quintron Model DP, Quintron Instrument Co., Division of E.F. Brewer Co, Menomonee Falls, Wis. 53051), standardized using a QuinGas standard as instructed by the manufacturer. Hydrogen peaks were plotted before and after an antimicrobial treatment regimen for comparison. The normal range for the second hydrogen peak was 0 to 20 ppm. Subjects referred to the Cedars-Sinai GI Motility Program for a lactulose breath hydrogen test (LBHT) to assess SIBO were entered into a database. Those that tested positive for SIBO were given antibiotic treatment by their referring physician and in some cases, returned for a follow-up LBHT to assess eradication of SIBO. During the follow-up LBHT, subjects were asked which antibiotic they were given to treat their SIBO. The eradication rate of each antibiotic was evaluated. Of the 771 subjects in the database, 561 (73%) tested positive for SIBO. […] (See Table 1 below). […] None of the commonly used antibiotics was universally successful in eradicating overgrowth.

SIBO [3] = experiment: Antibiotic treatment of Crohn's disease subjects with SIBO; type: in vivo, human; details: Crohn's subjects; pooled over the named antibiotics
Description: To correct for selection bias, a pilot study was conducted to determine the incidence of SIBO in subjects who had received a suspected diagnosis of Crohn's disease at Cedars-Sinai Medical Center=s IBD Center within the preceding three months.

ileal brake = details: rats, Brown et al. 1993, cited from earlier work

## NCCc1c[nH]c2ccc(O)cc12 [5-HT, 5-hydroxytryptamine]
Intestinal transit; 0.033 mg/kg/h × 90 min, 0 dose 68.5 ± 1.0
  Effect of 5-HT delivered to distal gut on intestinal transit time: 69.6 ± 4.2 min
Intestinal transit; 0.05 mg/kg/h × 90 min
  Effect of 5-HT delivered to distal gut on intestinal transit time: 33.5 ± 1.5 min
Intestinal transit; 0.066 mg/kg/h × 90 min
  Effect of 5-HT delivered to distal gut on intestinal transit time: 15.2 ± 0.5 min
Intestinal transit; 0.1 mg/kg/h 5-HT into distal gut, Saline-Dist 76.1±1.3%
  marker recovery: 35.2±2.3%
Intestinal transit; 0.1 mg/kg/h 5-HT into proximal gut, Saline-Prox 85.0±7.3%, four dogs
  marker recovery: 20.1±4.5%
Intestinal transit; 0.1 mg/kg/h × 90 min
  Effect of 5-HT delivered to distal gut on intestinal transit time: 16.1 ± 4.9 min
Intestinal transit; 0.3 mg/kg/h × 90 min
  Effect of 5-HT delivered to distal gut on intestinal transit time: 73.8 ± 0.6 min
Intestinal transit; 5-HT 0.05 mg/kg/h in distal gut, Buffer Control 79.4±4.1%
  marker recovery: 37.0±1.8%
Intestinal transit; 5-HT 0.05 mg/kg/h to distal gut, Buffer Control 83.3±3.3%, n=2
  marker recovery: 36.1±2.3%
Intestinal transit; 5-HT 0.1 mg/kg/h distal gut, Saline (i.v.)
  proximal intestinal transit, cumulative % marker recovered: 28.27 ± 5.03%
Intestinal transit; 5-HT 0.1 mg/kg/h to distal gut, buffer control 76.1±4.7%, four dogs
  marker recovery: 35.2±2.2%
Intestinal transit; 5-HT in distal gut, 2 mg (0.033 mg/kg/h) over 90 min, buffer 81.2%, n=1
  marker recovery: 73.8%
Intestinal transit; 5-HT in distal gut, 3 mg (0.05 mg/kg/h), n=1
  marker recovery: 53.1%
Intestinal transit; 5-HT in distal gut, 4 mg (0.066 mg/kg/h), n=1
  marker recovery: 11.6%
Intestinal transit; 5-HT in proximal gut, 0.033 mg/kg/h
  marker recovery: not significantly different from the buffer control
Intestinal transit; 5-HT in proximal gut, 0.05 mg/kg/h
  marker recovery: 33.2±14.0%
Intestinal transit; 5-HT in proximal gut, 0.066 mg/kg/h, buffer 75.0±4.4%, four dogs
  marker recovery: 16.9±+3.7%
[1]
  amount of 5-HT released by the proximal gut: 450 µg

## O=C(O)c1cn(C2CC2)c2cc(N3CCNCC3)c(F)cc2c1=O [Ciprofloxacin, ciprofloxacin]
SIBO [2]
  % Patients with SIBO Eradicated: 50%
SIBO [3]
  improvement in symptoms, breath test negative after antibiotic: 69±27%

## Cc1ncc([N+](=O)[O-])n1CCO [Flagyl, metronidazole]
SIBO [2]; 105 subjects with follow-up LBHT
  success in eradicating SIBO, comparison of antibiotics: relatively poor choice by itself
SIBO [2]
  % Patients with SIBO Eradicated: 25%
SIBO [3]
  improvement in symptoms, breath test negative after antibiotic: 69±27%
  improvement in symptoms, subjects remaining positive on breath test after antibiotic: 20±0%

## CN1C2CCCC1CC(NC(=O)c1nn(C)c3ccccc13)C2 (centres unmarked) [granisetron]
Ileal brake; subcutaneous administration
  ileal brake induced by ileal infusion of lipid: abolished the ileal brake
  intestinal transit of a baked bean meal: delayed

## C=CCN1CC[C@]23c4c5ccc(O)c4O[C@H]2C(=O)CC[C@@]3(O)[C@H]1C5 [naloxone]
Intestinal transit; 60 mM oleate in proximal gut with 3 mg naloxone
  marker recovery: 41.0±5.2%
Intestinal transit; 60 mM oleate in proximal gut with 6 mg naloxone
  marker recovery: 62.8±8.2%
Intestinal transit; 60 mM oleate in proximal gut with 12 mg naloxone
  marker recovery: 60.6±6.1%
Intestinal transit; buffer in proximal gut with 6 mg naloxone, no fat, without naloxone 81.3±6.1%, n=3
  marker recovery: 88.0±1.3%
Intestinal transit; distal gut 5-HT + naloxone 6 mg in proximal gut
  marker recovery: 90.1±4.6%
Intestinal transit; ileal brake + 6 mg naloxone to distal gut
  marker recovery: 29.4±5.4%
Intestinal transit; ileal brake + 6 mg naloxone to proximal gut
  marker recovery: 76.2±5.2%
Ileal brake
  ileal brake: abolish the ileal brake

## NC[C@H](O)c1ccc(O)c(O)c1 [norepinephrine]
Intestinal transit; Buffer + NE i.v. 50 mg/30 ml/1.5 h, Buffer Control 68.5 ± 5.0, five dogs
  Transit Across Proximal Gut (Cumulative % Marker Recovered): 16.3 ± 3.4^ab %
Intestinal transit; intravenous norepinephrine 0.12 μg/kg/h + normal saline, Buffer Control 76.9%, n=2
  marker recovery: 13.3%

## CC(C)NCC(O)COc1cccc2ccccc12 (centres unmarked) [propranolol]
Intestinal transit; 60 mM oleate distal gut + Propranolol (i.v.) 50 μg/kg/h
  proximal intestinal transit, cumulative % marker recovered: 66.42 ± 8.26%
Intestinal transit; 5-HT distal gut + Propranolol (i.v.) 50 μg/kg/h
  proximal intestinal transit, cumulative % marker recovered: 63.85 ± 8.76%
Intestinal transit; distal gut 5-HT + intravenous propranolol 50 μg/kg/h
  marker recovery: 77.7±7.6%
Intestinal transit; distal gut oleate + intravenous propranolol 50 μg/kg/h
  marker recovery: 72.1±4.7%
Intestinal transit; intravenous PYY + intravenous propranolol 50 μg/kg/h
  marker recovery: 66.3±3.1%

Reference: patent US9358276B2, “Methods of diagnosing and treating small intestinal bacterial overgrowth (SIBO) and SIBO-related conditions” (Cedars-Sinai Medical Center, priority 1999, dated 2016)
